Test results: publication PMC5814837 (Pest Management Science, 2017)
Values after ≈ are worked out from the molar mass of the structure shown. Values joined by “and” are separate entries in the source; they are usually repeats but may differ in a detail not shown here. Equal values may be shown once. Read-outs that look alike come from different tables or passages of the source.

Legend:
Zymoseptoria tritici [1] = settings: in vivo
Zymoseptoria tritici [2] = assay: microbe, parasite or virus in culture; type: cell-based
[3] = target: mitochondrial succinate dehydrogenase (SDH) (Zymoseptoria tritici, UniProt F9X9V6+F9XH52+O42772); assay: biochemical; settings: IC50
[4] = target: mitochondrial succinate dehydrogenase (SDH); assay: biochemical; parameters: species or system Zymoseptoria tritici
[5] = Zymoseptoria tritici, read-out: EC50 Median
[6] = Zymoseptoria tritici, read-out: EC50 Range

Chain of mitochondrial succinate dehydrogenase (SDH) (Zymoseptoria tritici, UniProt F9X9V6+F9XH52+O42772) (O42772 19-297): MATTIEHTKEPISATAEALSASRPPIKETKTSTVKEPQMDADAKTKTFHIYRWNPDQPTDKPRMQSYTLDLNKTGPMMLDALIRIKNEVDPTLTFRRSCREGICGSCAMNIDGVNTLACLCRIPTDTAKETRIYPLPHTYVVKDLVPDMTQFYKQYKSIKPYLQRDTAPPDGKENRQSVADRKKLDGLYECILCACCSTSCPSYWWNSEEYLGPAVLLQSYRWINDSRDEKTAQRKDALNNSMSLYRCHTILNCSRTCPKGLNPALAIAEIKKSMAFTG
Chain of mitochondrial succinate dehydrogenase (SDH) (Zymoseptoria tritici, UniProt F9X9V6+F9XH52+O42772) (F9XH52 44-187): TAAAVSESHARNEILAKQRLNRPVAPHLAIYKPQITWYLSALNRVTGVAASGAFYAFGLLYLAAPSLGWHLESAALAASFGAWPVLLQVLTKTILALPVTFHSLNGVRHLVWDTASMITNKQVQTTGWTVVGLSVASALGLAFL
Chain of mitochondrial succinate dehydrogenase (SDH) (Zymoseptoria tritici, UniProt F9X9V6+F9XH52+O42772) (F9X9V6 1-193): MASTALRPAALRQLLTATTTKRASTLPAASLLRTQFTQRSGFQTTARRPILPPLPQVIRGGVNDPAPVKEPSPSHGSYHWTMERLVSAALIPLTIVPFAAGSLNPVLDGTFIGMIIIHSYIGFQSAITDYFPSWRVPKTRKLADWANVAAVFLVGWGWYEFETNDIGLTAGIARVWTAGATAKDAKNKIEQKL
Chain of mitochondrial succinate dehydrogenase (SDH) (Zymoseptoria tritici, UniProt F9X9V6+F9XH52+O42772) (F9WWR1 29-643 partner): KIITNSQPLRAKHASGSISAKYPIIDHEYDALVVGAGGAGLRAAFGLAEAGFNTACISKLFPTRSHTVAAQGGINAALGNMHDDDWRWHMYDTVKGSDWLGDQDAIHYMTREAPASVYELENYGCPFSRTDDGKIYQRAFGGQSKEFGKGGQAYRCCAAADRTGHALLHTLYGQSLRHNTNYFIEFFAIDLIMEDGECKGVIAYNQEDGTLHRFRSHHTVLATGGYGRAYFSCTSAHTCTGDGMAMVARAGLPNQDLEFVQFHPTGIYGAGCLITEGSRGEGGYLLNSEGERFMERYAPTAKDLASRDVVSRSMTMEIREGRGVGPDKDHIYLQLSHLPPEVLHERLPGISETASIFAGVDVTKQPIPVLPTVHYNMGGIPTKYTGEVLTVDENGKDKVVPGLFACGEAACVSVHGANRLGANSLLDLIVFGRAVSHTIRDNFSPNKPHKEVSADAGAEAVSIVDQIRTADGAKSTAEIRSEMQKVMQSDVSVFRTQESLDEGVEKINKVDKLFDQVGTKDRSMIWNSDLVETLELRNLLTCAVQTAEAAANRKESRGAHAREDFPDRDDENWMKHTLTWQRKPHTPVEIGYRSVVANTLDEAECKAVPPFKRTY

| SMILES | EC50 (Zymoseptoria tritici [2]) [µg/mL] | EC50 Median (Zymoseptoria tritici [2]) [mg/L] | EC50 (Zymoseptoria tritici [2]; [5]) [µg/mL] | EC50 (Zymoseptoria tritici [2]; Zymoseptoria tritici) [µg/mL] | other results |
| --- | --- | --- | --- | --- | --- |
| Cc1cc(OC(C)C)ccc1C(=O)C(C)(C)NC(=O)c1sccc1C [Isofetamid, N‐[1,1‐dimethyl‐2‐(4‐isopropoxy‐o‐tolyl)‐2‐oxoethyl]‐3‐methylthiophene‐2‐carboxamide] | 0.06 (≈ 0.167 µM) | 0.096 (≈ 0.267 µM) | 0.09 (≈ 0.25 µM) |  | in planta control (in words) (Zymoseptoria tritici [1]): not controlled; EC50 (Zymoseptoria tritici [2]; Zymoseptoria tritici, read-out: high EC50 values (upper end of the sensitivity range)): > 50 µg/mL |
| O=C(NCCc1ncc(C(F)(F)F)cc1Cl)c1ccccc1C(F)(F)F [Fluopyram, fluopyram] | 0.20 (≈ 0.504 µM) | 0.215 (≈ 0.542 µM) | 0.19 (≈ 0.479 µM) | 0.2 (≈ 0.504 µM) | application rate providing control (Zymoseptoria tritici [1]): ≥ 30 mg/L; in planta control (in words) (Zymoseptoria tritici [1]): not controlled; EC50 (Zymoseptoria tritici [2]; [6]): 0.08 to 7.78 µg/mL (≈ 0.202 to 19.6 µM) |
| Cc1cccc(N(C)C(=S)Oc2ccc3ccccc3c2)c1 [Tolnaftate, tolnaftate] |  |  |  | 0.17 (≈ 0.553 µM) | growth in the presence of tolnaftate (Zymoseptoria tritici [2]): none of these strains was able to grow |
| Cn1cc(C(=O)Nc2ccccc2-c2cc(F)c(F)c(F)c2)c(C(F)F)n1 [Fluxapyroxad] | 0.04 (≈ 0.105 µM) |  |  | 0.04 (≈ 0.105 µM) | RF in comparison with reference strain IPO323 (Zymoseptoria tritici [2]): < 10 |
| O=C(Nc1ccccc1-c1ccc(Cl)cc1)c1cccnc1Cl [Boscalid, boscalid] |  |  |  | 0.16 (≈ 0.466 µM) |  |
| N#Cc1c(Cl)c(Cl)c(Cl)c(C#N)c1Cl [Chlorothalonil, chlorothalonil] |  |  |  | 0.13 (≈ 0.489 µM) | Resistance factor (RF) (Zymoseptoria tritici [2]): 0.8 and 1.2 and 1.3 and 1.4 and 0.7; sensitivity of strains (in words) (Zymoseptoria tritici [2]): sensitive |
| Cn1cc(C(=O)Nc2ccc(F)cc2-c2ccc(Cl)c(Cl)c2)c(C(F)F)n1 [Bixafen, bixafen] | 0.03 (≈ 0.0724 µM) | 0.096 (≈ 0.232 µM) | 0.063 (≈ 0.152 µM) | 0.03 (≈ 0.0724 µM) | Control efficacy (Zymoseptoria tritici [1]): 0%; application rate at which strain was well controlled (Zymoseptoria tritici [1]): 3 mg/L; application rate at which strains were well controlled (Zymoseptoria tritici [1]): 10 mg/L; IC50 [3]: 33 nM and 38 nM; IC50 [4]: 31 nM and 49 nM; EC50 (Zymoseptoria tritici [2]; [6]): 0.017 to 0.406 µg/mL (≈ 0.041 to 0.98 µM) |
| CC(C)CC(C)c1sccc1NC(=O)c1cn(C)nc1C(F)(F)F (stereo not drawn) [Penthiopyrad, penthiopyrad] |  |  |  | 0.05 (≈ 0.139 µM) |  |
| [Cl][Sn]([c]1ccccc1)([c]1ccccc1)[c]1ccccc1 [Fentin Cl, fentin chloride] | 0.07 |  |  |  |  |
